Data from patent US9968624B2, “Depression treatment agent” (THE UNIVERSITY OF TOKYO, priority 2014, dated 2018).

Key:
[1] = test system: mice (C57BL/6 strain, male); assay: Forced swim test (5S-ManNAcF intracerebroventricular administration, one week); type: in vivo, mouse
Protocol: Similar to Example 3, 5S-ManNAcF (0.01, 0.1, 1 mmol/L administration group: each 9-10 mice) was administered intracerebroventricularly. The dosing period was one week. The mice of the control group in the same age in weeks were administered with saline (control group: each 9-10 mice, SAL).
A forced swim test similar to that in Example 1 was performed at 1 week after administration.

[2] = test system: mice (C57BL/6 strain, male); assay: Forced swim test (5S-ManNAcF, ManNAc, intracerebroventricular administration, 3 weeks); type: in vivo, mouse; conditions: 0.1 mmol/L in saline, intracerebroventricular by osmotic pump for 3 weeks, vs saline
Protocol: Using 8-9-week-old mice (C57BL/6 strain, male) having a catheter transplanted in the cerebroventricle, and carrying a connected osmotic pump (0.11 μl/hr, Alzet, No1004, 100 μl is released in 28 days) on the back, 5S-ManNAcF (0.01, 0.1 mmol/L) or ManNAc (100 mmol/L) dissolved in saline was intracerebroventricularly administered for 3 weeks (administration group: each 9-10 mice). The mice of the control group in the same age in weeks were administered with saline (control group: each 9-10 mice, SAL).
A forced swim test similar to that in Example 1 was performed at 3 weeks after administration.

[3] = test system: juvenile mice (C57BL/6 strain, male); assay: Social defeat test; type: in vivo, mouse; conditions: defeat stress experience mice, 5 mg/ml in drinking water for 4 weeks, latter 3 min of 5 min
Protocol: Under conditions similar to those in Example 1, ManNAc was administered to juvenile mice (C57BL/6 strain, male) by administration by free drinking of water for 4 weeks in total from 10-week-old to 14-week-old (ManNAc administration group: 14 mice). The mice of the control group in the same age in weeks were allowed to take drinking water freely (control group: 14 mice).
A mouse that lived with a more aggressive mouse (aggressive mouse) for a given period (1 hr) stays away from the aggressive mouse thereafter. This test method reflects higher brain functions, and was developed as a social defeat test and widely utilized as a system for evaluating social anxiety (Nature (2008) 455, 894-902). The ManNAc administration group and the control group were made to stay together with an aggressive mouse (one-to-one) for 1 hr per day, and the defeat stress was imposed for 5 days. […] The number of times the defeat stress experience mouse intruded a contact zone formed on the periphery of the compartment in which the aggressive mouse was housed, and the sniffing time of the defeat stress experience mouse were measured in the latter 3 minutes of 5 minutes. […]

[4] = test system: mice (C57BL/6 strain, male); assay: Forced swim test (ManNAc oral administration); type: in vivo, mouse; conditions: juvenile mice (10- to 14-week-old), 5 mg/ml in drinking water for 4 weeks, 6 min test; control group about 2 min
Protocol: ManNAc was dissolved in drinking water, and drinking water having a concentration of 5 mg/ml was administered to juvenile mice (C57BL/6 strain, male) by administration by free drinking of water for 4 weeks in total from 10-week-old to 14-week-old (ManNAc administration group: 16 mice). The mice of the control group in the same age in weeks were allowed to take drinking water freely (control group: 16 mice).
Similarly, 5 mg/ml ManNAc-containing drinking water was administered to aged mice (C57BL/6 strain, male) by administration by free drinking of water for 4 weeks in total from […] (ManNAc administration group: 14 mice). The mice of the control group in the same age in weeks were allowed to take drinking water freely (control group: 15 mice).
According to the method described in S. C. […] The mice were graded with regard to 4 evaluation criteria: swimming, immobility, climbing, and others, and a dominant behavior was recorded every 5 sec. […]
When a mouse is forcibly placed in a water pool, it tries to swim to the shore. […] The forced swim test for 6 min enables quantification of immobility in a water tank, and the immobility has been proposed to be similar to “behavioral despair”, observed in depression.

[5] = test system: mice (BALB/c and C57BL/6 strains); conditions: BALB/c strain, fluoxetine 10 mg/kg/day; drug non-administration group about 125-130 sec; cited from earlier work

For O=C(CF)NC1C(O)SC(CO)[C@@H](O)C1O (stereo partly drawn) [5S-ManNAcF], the “total immobilization time as compared to the control group” value ([1]; 0.1 mmol/L in saline, intracerebroventricular by osmotic pump for one week, vs saline) was “significantly decreased”, the “effect on total immobilization time, comparison of concentrations” value ([1]; 0.1 mmol/L vs 1 mmol/L, intracerebroventricular for one week) was “tendency of a higher effect at a concentration of 0.1 mmol/L than a high dose of 1 mmol/L” and the “total immobilization time as compared to the control group” value [2] was “significantly decreased”.

In the case of CC(=O)N[C@@H]1C(O)O[C@H](CO)[C@@H](O)[C@@H]1O (stereo partly drawn) [ManNAc, N-acetyl-D-mannosamine], the “contact zone intrusion number” value [3] is reported as “a significant difference was not found”, the “sniffing time (sniffing behavior)” value ([3]; water group about 20 sec or below, stress non-experience group about 30 sec) is reported as “about 30 sec” and the total immobilization time [4] is reported as “about 1 min”.

In the case of CNCCC(Oc1ccc(C(F)(F)F)cc1)c1ccccc1 (stereo not shown) [fluoxetine], the immobilization time [5] is given as “about 100 sec”.
